In one test the test system is galium. Nature of the test: Test A postemergence. The note with it: 0 to 100 scale (0 no effect, 100 complete control), approx. 10 d. Type of test: in vivo, Galium aparine. The text has this: (§1) Seeds of plant species selected from barnyardgrass (Echinochloa crus-galli), crabgrass, large (large crabgrass, Digitaria sanguinalis), kochia (Kochia scoparia), ragweed (common ragweed, Ambrosia elatior), foxtail, giant (giant foxtail, Setaria faberii), morningglory (Ipomoea spp.), pigweed (Amaranthus retroflexus), velvetleaf (Abutilon theophrasti), ryegrass, Italian (Italian ryegrass, Lolium multiflorum), wheat (Triticum aestivum), and corn (Zea mays) were planted into a blend of loam soil and sand and treated preemergence with a directed soil spray using test chemicals formulated in a non-phytotoxic solvent mixture which included a surfactant.
(§2) At the same time, plants selected from these crop and weed species and also blackgrass (Alopecurus myosuroides), and galium (catchweed bedstraw, Galium aparine), were planted in pots containing the same blend of loam soil and sand and treated with postemergence applications of test chemicals formulated in the same manner. Plants ranged in height from 2 to 10 cm and were in the one- to two-leaf stage for the postemergence treatment. Treated plants and untreated controls were maintained in a greenhouse for approximately 10 d, after which time all treated plants were compared to untreated controls and visually evaluated for injury. Plant response ratings, summarized in Table A, are based on a 0 to 100 scale where 0 is no effect and 100 is complete control. A dash (-) response means no test result.

A further test deals with kochia. Kind of test: Test A postemergence. The test is classed as in vivo, Kochia scoparia. The note with it: 0 to 100 scale (0 no effect, 100 complete control), approx. 10 d.
Excerpt: as §1, §2

As for `COc1nc(-c2ccccc2)nn1Cc1ccnc(C(F)(F)F)c1` [Compound 32], the “Plant response rating, Galium” value came to 60 in the test with galium (125 g ai/ha) and 90 in the test with galium (500 g ai/ha). Further, the entries for the “Plant response rating, Kochia” value in the test on kochia (125 g ai/ha) and in the test with kochia (500 g ai/ha) were 80 and 90, respectively.
Regarding `COc1nc(-c2ccc(C(F)(F)F)cc2)nn1Cc1ccnc(C(F)(F)F)c1` [Compound 25], the results for the “Plant response rating, Galium” value in the test with galium (31 g ai/ha) and in the test on galium (125 g ai/ha) were 60 and 80, respectively. The “Plant response rating, Kochia” value in the test on kochia (31 g ai/ha) and in the test with kochia (125 g ai/ha) was 90 each time.
Take `CCCOc1nc(-c2ccccc2)nn1Cc1ccnc(C(F)(F)F)c1` [Compound 33]: the “Plant response rating, Galium” value turned out to be 70 in the test with galium (125 g ai/ha) and 80 in the test with galium (500 g ai/ha). The “Plant response rating, Kochia” value in the test on kochia (125 g ai/ha) and in the test on kochia (500 g ai/ha) was 90 throughout.
For the compound `CCOc1nc(-c2ccc(Cl)cc2)nn1Cc1ccnc(C(F)(F)F)c1` [Compound 26], the “Plant response rating, Galium” value in the test on galium (31 g ai/ha) is 60; in the test on galium (125 g ai/ha) it was 90. In addition, the entries for the “Plant response rating, Kochia” value with kochia (31 g ai/ha) and in the test with kochia (125 g ai/ha) were 80 and 90, respectively.

The values above are taken from patent publication US10681909B2, “Herbicidal triazoles” (FMC Corporation, priority 2014, dated 2020).
